Series [1] relates to TT-specific short-term T cell lines from PBMC. The experiment in a line: Cytokine production by TT-specific short-term T cell lines expanded with or without RLX. The format is cell-based, human. The method, then:
TT-specific short-term T cell lines were generated from PBMC of TT-vaccinated normal donors according to a technique described in M. P. Piccinni et al <<Progesterone favors the development of human T helper cells producing Th2-type cytokines and promotes both IL-4 production and membrane CD30 expression in established TH1 cell clones>>, in J. Immmunol., 1995, 155: 128-133.
Briefly, 10^5 PBMC in 2 ml RPMI 1640 medium supplemented with 2 mM L-glutamine, 2×10^−5M 2-ME and 5% human serum (complete medium) were stimulated in 24-well flat-bottom plates for 5 days with the antigen (0.2?g/ml TT) in the absence or in the presence of RLX at concentrations of 10^−10, 10^−9, 10^−8, 10^−7 and 10^−6 M. Human IL-2 (20 U/ml) was then added and cultures continued for another 9 days. Viable T blasts were resuspended in complete medium and tested for their antigen specificity. To this end, 2×10^4 T blasts were seeded in microplates and cocultured for 48 h with irradiated (6000 rad) autologous PBMC (5×10^4) in the presence of medium alone or 0.1 ? g/ml TT, respectively. After a 16-h pulse with 0.5 ?Ci [^3H]thimidine, cultures where harvested and radioactivity measured by liquid scintillation. The phenotype distribution of TT-specific T cells was assessed by flow cytometer analysis.
(§1) To quantitate cytokine production in supernatants of TT-specific shortterm T cell lines and established T cell clones, […] were cultured in the presence of 20 ng/ml PMA plus 100 ng/ml anti-CD3 mAb. After 36 h culture, cell-free supernatants were collected, filtered, and stored in aliquots at −70° C. until used. Determination of IFN-? was performed by a commercial ELISA (Biosource International, Camarill, Calif.). […] Values of the cytokine content 5 SD over those of control supernatants obtained by stimulation of irradiated feeder cells alone were regarded as positive.
On the other hand, no effect of RLX dilution can be observed on the production of IL-4.

In series [2] the test system is adherent cell-enriched fractions of PBMC (monocytes/APC). The experiment in a line: IL-12 and IFN-? release by adherent cell-enriched fractions of PBMC stimulated with TT. Conditions: stimulated 5 days with TT, absence vs presence of RLX. The format is cell-based, human.
Series [3] deals with established CD4+ T cell clones (Th0-like). The series can be described thus: Cytokine production (ELISA) by established CD4+ T cell clones stimulated with insolubilized anti-CD3 mAb. The conditions noted are these: for levels of IFN-?: 12 CD4+ clones, insolubilized anti-CD3 mAb, p<0.03 vs absence of RLX (3.6±0.98 ng/ml). The format is cell-based, human. The method, then: To generate T cell clones, PBMC from normal subjects were seeded under limiting dilution conditions (0.3 cell/well) in six round-bottom microwell plates containing […] (6000 rad) allogeneic PBMC (as feeder cells) and PHA (1% vol/vol) in a final volume of 0.2 ml complete medium supplemented with 20 U/ml IL-2 and 10% FCS. Growing microcultures where then supplemented, at weekly intervals, with 20 U/ml IL-2 and 10^5 irradiated feeder cells. The phenotype distribution of T cell clones was assessed by flow cytometer-analysis.
as §1
The two curves shown in FIG. 2 relate to two CD4^+ T cell clones stimulated with immobilised anti-CD3 antibody in the presence or in the absence of different concentrations of RLX for 36 h. […] Total RNA was extracted as described herein after. 1?g of RNA was reversed transcribed and cDNA were amplified and then subjected to PCR amplification with primers for IFN-? and IL4 as discussed more in detail below.
To provide unequivocal evidence of the direct effect of RLX on T cells, the activity of RLX on the IFN-? mRNA expression and IFN-? production by established T cell clones was examined. To this end, 12 CD4^+ T cells clones showing a Th0-like profile (production of both IFN-? and IL-4) were cultured in the absence of any other cell type and stimulated with insolubilized anti-CD3 mAb in the presence or absence of RLX. […] The levels of IL-4 produced by the same CD4+T cell clones were not altered by the presence of RLX.
In general terms: In an ELISA, binding on a coated surface is turned into a signal by an enzyme label.

The test system of series [4] is established CD4+ T cell clones. The experiment in a line: RT-PCR of IFN-? and IL-4 mRNA in established CD4+ T cell clones. The format is cell-based, human. The conditions noted are these: two clones, 10^−8 M RLX vs absence. The method, then:
To induce cytokine mRNA expression in established T cell clones for RNA extraction 2×10^5 T blasts from each clone were cultured with insolubilized anti-CD3 (1?g/ml). After 12 h, pellets were washed four times with PBS at pH 7.2 and kept frozen until used. Total RNA was extracted using Ultraspec RNA Isolation kit (Biotex Laboratories, Inc. Houston, Tex., USA). […] Following extraction, 1 ?g of RNA was reverse transcribed by M-MLV reverse transcriptase (Gibco-BRL, Gaithersburg, Md., USA). All cDNA were amplified with primers for ?-actin to test the quality of cDNA and then subjected to PCR amplification with primers for IFN-? and IL-4. In each PCR reaction a positive control and a negative control (without cDNA as template to exclude contamination) were included. PCR analysis was carried out in a DNA thermal cycler (Idaho Technology, Idaho Falls, ID, USA). […] The size of the amplified products was evaluated by comparison with molecular weight markers run in parallel lanes.
The intensity of the bands for ?-actin obtained by RT-PCR was measured in all the samples to confirm that the same quantities of total RNA were reverse transcribed. In addition, the intensity of the bands for IFN-? obtained by PCR amplification (MIMIC and samples) and by Southern blot was also measured. […]

In another series the test system is CD4+ T cell clone. The experiment in a line: Competitive PCR for IFN-? mRNA in a CD4+ T cell clone. The format is cell-based, human. The method, then:
Competitive PCRfor IFN-?was performed using a competitorcontrol fragment (PCR MIMIC; Clontech Laboratories Inc. Palo Alto, Calif., USA) according to the manufacturer's instructions. PCR MIMIC was used together with sample cDNA in the reaction mixture; sample and control cDNA were amplified with the same primers, so they competed for the same primers in the same reaction, but were distinguished on gel electrophoresis by differences in length. By knowing the amount of PCR MIMIC added to the reaction, the amount of target cDNA and therefore the initial mRNA levels could be determined. Each sample (and competitor fragment) was subjected to 25 cycles of amplification as described above.
The intensity of the bands for ?-actin obtained by RT-PCR was measured in all the samples to confirm that the same quantities of total RNA were reverse transcribed. In addition, the intensity of the bands for IFN-? obtained by PCR amplification (MIMIC and samples) and by Southern blot was also measured. A CCD video camera C3077/01 (Hamamatsu Photonics, Tokyo, Japan) interfaced with an Apple Macintosh personal computer was used. Acquisition of images was obtained with Imagequest IQBase software (Hamamatsu Photonics). Image processing and analysis was performed with the free-share software IMAGE (National Institutes of Health, Research Services, Branch NIMH, version 1.28).

Another series relates to sensitized guinea pigs. Conditions: RLX treatment; cited from earlier work.
A further series deals with PSS patients. The conditions noted are these: cited from earlier work.
[5] abbreviates: FIG. 1, mean values, cultures with antigen plus 200 U/ml IL-12 as printed.
The mark [6] stands for this setting: expanded in presence vs absence of RLX.

As for relaxin [RLX], in series [1] (setting [5]), the “production of IFN-? in TT-specific T cell lines as a function of RLX concentration (FIG. 1)” value is recorded as “increases with the concentration of RLX” and the “production of IL-4 in TT-specific T cell lines as a function of RLX concentration (FIG. 1)” value is listed as “no effect”. Also, the “production of IFN-? in TT-specific T cells” value in series [1] (expanded in presence of RLX at 10^−9, 10-8 and 10^−7 M vs absence of RLX) is reported as “significantly higher”. Further, in series [1] (setting [6]), the “production of IL-4 in TT-specific T cells” value was “no significant differences”, the “production of IL-5 in TT-specific T cells” value is given as “no significant differences” and the “production of IL-6 in TT-specific T cells” value is on record as “no significant differences”. In series [2], the “concentration of IFN-? in supernatants” value was “no significant differences” and the “concentration of IL-12 in supernatants” value is recorded as “no significant differences”. In addition, in series [3] (10^−7 M RLX), the “levels of IFN-?” value stood at 5.87±1.63 ng/m. Moreover, in series [3] (10^−8 M RLX), the “levels of IFN-?” value was 8.20 ± 2.27 ng/mL. Also, the “levels of IL-4” value in series [3] (same 12 CD4+ T cell clones, presence vs absence of RLX) is recorded as “not altered”. In series [4], the “IFN-? mRNA expression (RT-PCR)” value is reported as “higher levels” and the “IL-4 mRNA levels (RT-PCR)” value was “the same”. The “increase of IFN-? mRNA (competitive PCR, image analysis)” value with CD4+ T cell clone (T cell clone no. 2, 10^−8 M RLX vs absence) was “approximately tenfold increase”. Besides, the “IFN-? mRNA amount (competitive PCR)” value in the series on CD4+ T cell clone (T cell clone no. 2, presence of 10^−8 M RLX, absence of RLX 4.1×10^−3) is given as 5×10^−2 attomol/? I. In the series with sensitized guinea pigs, the allergic asthma-like reaction entry is given as “reduced” and the bronchial hyperresponsiveness result was “reduced”. In addition, the total skin score result with PSS patients (PSS patients, control phase trial) is recorded as “improvement”. In addition, the tolerability result in the series with PSS patients (RLX treatment compared with administration of IFN-?) is on record as “better tolerated”.

Source of the values: patent US20050180968A1, “Use of relaxin for stimulating the development of activated human T cells into TH1-like effectors” (priority 2000, published 2005).
